Experimental data as given in patent US10138212B2, “Aminoquinazoline compounds as A2A antagonist” (Merck Sharp & Dohme Corp., priority 2015, dated 2018).
pKi: −log10 of the molar value.

What was measured:
human A2a receptor = human A2a receptor (Homo sapiens (Human), UniProt P29274); test: A2a competition binding assay using Scintillation Proximity technology
Experimental: (§1) Binding affinities of compounds of the invention for the human A2a receptor were determined in a competition binding assay using Scintillation Proximity technology. Thus, 1* μg, or preferably 0.25 μg of membranes from HEK293 cells expressing the human A2a receptor were incubated with a compound of the invention at concentrations ranging from 3000 nM to 0.15 nM in a reaction mixture containing also 0.5 nM of a tritiated form of 5-amino-7-[2-phenethyl]-2-(furan-2-yl)-7H-pyrazolo[4,3-e][1,2,4]triazolo[1,5-c]pyrimidine (the tritiated compound) and 25 μg of wheat germ agglutin-coated yttrium silicate SPA beads for one hour at room temperature with agitation. The beads were then allowed to settle to the bottom of the wells for 1 hr, after which the membrane-associated radioactivity was determined by scintillation counting in a TopCount microplate reader. Ki values were determined using the Cheng-Prusoff equation.
HEK293 cells expressing the human, rat, dog or monkey adenosine 2a receptor (Purchased from Perkin-Elmer # RBHA2AM400UA).
The Tritiated compound was prepared in-house by MRL Radiochemistry according to published methods.
Wheat germ agglutinin-coated yttrium silicate SPA beads (GE Healthcare #RPNQ0023). Dilute to 25 mg/ml in assay buffer.
Assay Buffer was prepared in house: Dulbecco's calcium and magnesium free phosphate buffered saline+10 mM MgCl2
Adenosine deaminase from calf intestine, 10 mg/2 ml (Roche #10 102 105 001).
A2a antagonist standard (9-chloro-1-(2-furanyl)-[1,2,4]triazolo1,5-c]quinazolin-5-amine from Tocris Bioscience)
Make eight 1:3 serial dilutions in 100% DMSO from a 3 mM compound stock
Transfer 50 nl of compound into a 384-well OptiPlate (Perkin Elmer).
Typically, final concentrations of compound used in the assay ranged from 3000 nM to 0.152 nM.
Dilute a solution of the Tritiated compound to 1.25 nM in assay buffer. This is a 2.5× solution. The final concentration in the assay is 0.5 nM. Calculate the concentration by counting two 5 μl aliquots.
Use *1 ug or preferrably 0.25 ug of membrane/well. Dilute membranes to 9.7 μg/ml in assay buffer. Treat with 20 ug/ml adenosine deaminase (ADA) for 15 minutes at room temperature to degrade endogenous adenosine.
Use 25 μg/well wheat germ agglutinin-coated yttrium silicate SPA beads.
Mix ADA-treated membranes and SPA beads together for 30 min prior to assay.
To the Perkin-Elmer Optiplate-384 containing the compound titration add 20 μl of 2.5× solution of the Tritiated compound and 30 μl of the membrane-bead mixture. Incubate for one hour at room temperature with agitation.
Include total binding (assay buffer+1% DMSO) and non-specific binding (CGS15943, 1 μM) wells.
Allow the beads to settle for one hour.
A curve fitting program (i.e., Prism, Activity Base, Chemcart) is used to determine the EC50. The Ki value is calculated using the Cheng-Prusoff equation. Ki=EC50/(1+(radioligand concentration/Kd))
Using the foregoing assay method, the Ki results were obtained using the compounds of the invention described in Tables IIIa, IIIb, and IV. Each example compound tested is reported in the following format: Example number: A2a Ki reported in nM. Thus, for example, the compound Ex-1 was determined to have an Ki using the above-described assay and calculations, of 10.0 nM.

human A1 receptor = human A1 receptor (Homo sapiens (Human), UniProt P30542); test: A1 competition binding assay using Scintillation Proximity technology; selectivity = A1 binding Ki / A2a binding Ki; settings: A1 binding Ki divided by A2a binding Ki
Chain of human A1 receptor (P30542 whole entry): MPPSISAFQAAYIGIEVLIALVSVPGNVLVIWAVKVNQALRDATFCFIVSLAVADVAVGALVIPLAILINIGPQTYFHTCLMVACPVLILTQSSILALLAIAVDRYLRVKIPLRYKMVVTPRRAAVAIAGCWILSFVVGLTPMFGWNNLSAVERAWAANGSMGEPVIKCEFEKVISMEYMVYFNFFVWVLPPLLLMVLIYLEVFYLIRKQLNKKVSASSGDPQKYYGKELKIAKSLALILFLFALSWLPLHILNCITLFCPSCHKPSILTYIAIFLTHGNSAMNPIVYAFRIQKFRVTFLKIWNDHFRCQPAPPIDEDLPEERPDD
Experimental: as §1, with “A1” for “A2a”, “5” for “1* μg, or preferably 0.25 μg”, “CHO-K1” for “HEK293”, “0.7” for “0.5”, “8-Cyclopentyl-1,3-dipropylxanthine” for “5-amino-7-[2-phenethyl]-2-(furan-2-yl)-7H-pyrazolo[4,3-e][1,2,4]triazolo[1,5-c]pyrimidine”, “in a similar fashion described with A2a binding.” for “using the Cheng-Prusoff equation.”
• Cells expressing the human, rat, dog or monkey adenosine 1 receptor (Purchased from Perkin-Elmer # ES-010-M400UA • [^3H]DPCPX (purchased from Perkin-Elmer NET-974, 8-cyclopentyl-1,3-dipropylxanthine, [dipropyl-2,3-^3H(N)]. • Wheatgerm agglutinin-coated yttrium silicate SPA beads (Purchased from GE Healthcare #RPNQ0023). Dilute to 25 mg/ml in assay buffer. Store at 4° C. • Assay Buffer—Dulbecco's phosphate buffered saline without calcium and without magnesium+10 mM MgCl2 • Adenosine deaminase from calf intestine, 10 mg/2 ml (Roche #10 102 105 001). • DMSO • DPCPX (A1 antagonist) from Tocris Bioscience Compound Dilution • Dilute compounds to 1 mM in 100% DMSO
Make serial dilutions as necessary (i.e., 1:10, 1:3) in 100% DMSO.
Dilute 1:20 into assay buffer (i.e. 3 ul into 57 ul buffer). This is a 5× solution in 5% DMSO.
• Dilute [^3H]DPCPX to 1.75 nM in assay buffer. This is a 2.5× solution. The final concentration in the assay is 0.7 nM. Calculate the concentration by counting two 5 ul aliquots. Membrane Preparation • Use 5 ug of membrane/well. Dilute membranes to 250 ug/ml in assay buffer. Treat with 20 ug/ml adenosine deaminase (ADA) for 15 minutes at room temperature to degrade endogenous adenosine. Membrane-Bead Mixture • Use 25 ug/well wheatgerm agglutinin-coated yttrium silicate SPA beads • Mix ADA-treated membranes and SPA beads together for 30 min prior to assay. Assay Assembly • Add in order to a Perkin-Elmer Optiplate-384: 10 ul of 5× compound, 20 ul of 2.5× [^3H]DPCPX, 20 ul membrane-bead mixture. Incubate for one hour at room temperature with agitation. • Include total binding (assay buffer+1% DMSO) and non-specific binding (DPCPX, 1 uM) wells. Counting and Calculations

[1] = 0.25 μg of membranes from HEK293 cells expressing the human A2a receptor
[2] = * assay run with 1 μg of membranes versus 0.25 μg, HEK293 cells expressing the human A2a receptor

Chain of human A2a receptor (P29274 whole entry): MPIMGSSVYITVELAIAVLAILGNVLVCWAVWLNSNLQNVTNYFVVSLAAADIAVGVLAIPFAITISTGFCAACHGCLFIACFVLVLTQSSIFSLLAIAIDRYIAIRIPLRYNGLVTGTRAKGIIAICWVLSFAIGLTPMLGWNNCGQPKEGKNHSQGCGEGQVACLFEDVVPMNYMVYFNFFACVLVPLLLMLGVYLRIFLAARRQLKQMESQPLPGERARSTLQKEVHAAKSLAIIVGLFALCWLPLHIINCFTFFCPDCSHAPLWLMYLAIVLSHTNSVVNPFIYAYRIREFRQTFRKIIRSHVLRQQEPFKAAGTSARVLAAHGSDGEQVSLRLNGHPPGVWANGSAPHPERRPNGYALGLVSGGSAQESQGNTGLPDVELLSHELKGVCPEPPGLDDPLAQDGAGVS

Compound	pKi (human A2a receptor; [1])	A2a selectivity (A2a A1 binding selectivity) (human A1 receptor)	pKi (human A2a receptor; [2])
COc1cccc2c(C(=O)NCc3cccc(C(C)(O)C(F)(F)F)n3)nc(N)nc12 (stereo not drawn) [Example 3, 2-amino-8-methoxy-N-[[6-(2,2,2-trifluoro-1-hydroxy-1-methyl-ethyl)-2-pyridyl]methyl]quinazoline-4-carboxamide]	9.30	600	–
COc1cccnc1CNC(=O)c1nc(N)nc2c(OC)cccc12 [Example 23, 2-amino-8-methoxy-N-[(3-methoxy-2-pyridyl)methyl]quinazoline-4-carboxamide]	8.52	110	–
COc1cccc2c(C(=O)NCc3nc(-c4ccccc4)c(C)o3)nc(N)nc12 [Example 31, 2-amino-8-methoxy-N-[(5-methyl-4-phenyl-oxazol-2-yl)methyl]quinazoline-4-carboxamide]	8.80	105	–
CCn1cccc(CNC(=O)c2nc(N)nc3c(OC)cccc23)c1=O [Example 13, 2-amino-N-[(1-ethyl-2-oxo-3-pyridyl)methyl]-8-methoxy-quinazoline-4-carboxamide]	9.70	112	–
COc1cccc(CNC(=O)c2nc(N)nc3c(OC)cccc23)n1 [Example 21, 2-amino-8-methoxy-N-[(6-methoxy-2-pyridyl)methyl]quinazoline-4-carboxamide]	9.10	82	–
COc1cccc2c(C(=O)N[C@@H](CO)c3ccc4ccccc4n3)nc(N)nc12 [Example 37, 2-amino-N-[(1R)-2-hydroxy-1-(2-quinolyl)ethyl]-8-methoxy-quinazoline-4-carboxamide]	8.08	32	–
COc1cccc2c(C(=O)N[C@H]3CCCc4cccnc43)nc(N)nc12 [Example 35, 2-amino-8-methoxy-N-[(8S)-5,6,7,8-tetrahydroquinolin-8-yl]quinazoline-4-carboxamide]	6.74	48	–
COc1cccc2c(C(=O)N[C@@H](CO)c3ccccc3)nc(N)nc12 [Example 36, 2-amino-N-[(1R)-2-hydroxy-1-phenyl-ethyl]-8-methoxy-quinazoline-4-carboxamide]	8.59	114	–
COc1cccc2c(C(=O)NCc3cccc(F)n3)nc(N)nc12 [Example 27, 2-amino-N-[(6-fluoro-2-pyridyl)methyl]-8-methoxy-quinazoline-4-carboxamide]	8.82	148	–
COc1cccc2c(C(=O)NCc3cccc(COc4ccc(F)cc4)n3)nc(N)nc12 [Example 45, 2-amino-N-[[6-[(4-fluorophenoxy)methyl]-2-pyridyl]methyl]-8-methoxy-quinazoline-4-carboxamide]	9.52	230	–

More lines, now with the values ahead:

pKi (human A2a receptor; [1])	A2a selectivity (A2a A1 binding selectivity) (human A1 receptor)	pKi (human A2a receptor; [2])	Compound
8.40	297	–	Nc1nc(C(=O)NCc2ncccc2-c2ncccn2)c2cccc(F)c2n1 [Example 67, 2-amino-8-fluoro-N-[(3-pyrimidin-2-yl-2-pyridyl)methyl]quinazoline-4-carboxamide]
8.02	67	–	Nc1nc(C(=O)NCc2cccc(CO)n2)c2cccc(F)c2n1 [Example 57, 2-amino-8-fluoro-N-[[6-(hydroxymethyl)-2-pyridyl]methyl]quinazoline-4-carboxamide]
8.52	70	–	Nc1nc(C(=O)NCc2cccc3cccnc23)c2cccc(Cl)c2n1 [Example 91, 2-amino-8-chloro-N-(8-quinolylmethyl)quinazoline-4-carboxamide]
–	64	8.60	[2H]C([2H])(NC(=O)c1nc(N)nc2c(OC)cccc12)c1cccc(C([2H])([2H])c2cncc(N3CCOCC3)c2)n1 [Example 110, 2-amino-N-[dideuterio-[6-[dideuterio-(5-morpholino-3-pyridyl)methyl]-2-pyridyl]methyl]-8-methoxy-quinazoline-4-carboxamide]
8.21	30	–	Cc1ccc(CNC(=O)c2nc(N)nc3c(F)cccc23)nc1 [Example 72, 2-amino-8-fluoro-N-[(5-methyl-2-pyridyl)methyl]quinazoline-4-carboxamide]
6.54	1	–	Nc1nc(C(=O)NCc2cccc3cccnc23)c2cccc(-c3cncnc3)c2n1 [Example 97, 2-amino-8-pyrimidin-5-yl-N-(8-quinolylmethyl)quinazoline-4-carboxamide]
–	14	7.64	COC(=O)c1cccc(CNC(=O)c2nc(N)nc3c(F)cccc23)n1 [Example 75, methyl 6-[[(2-amino-8-fluoro-quinazoline-4-carbonyl)amino]methyl]pyridine-2-carboxylate]
7.07	55	–	CS(=O)(=O)c1cccc2c(C(=O)NCc3cccc4cccnc34)nc(N)nc12 [Example 95, 2-amino-8-methylsulfonyl-N-(8-quinolylmethyl)quinazoline-4-carboxamide]
–	44	8.04	Cc1ccc(-c2cccnc2CNC(=O)c2nc(N)nc3c(F)cccc23)nc1 [Example 68, 2-amino-8-fluoro-N-[[3-(5-methyl-2-pyridyl)-2-pyridyl]methyl]quinazoline-4-carboxamide]
8.35	19	–	Nc1nc(C(=O)NCc2cccc(-c3cnco3)n2)c2cccc(F)c2n1 [Example 70, 2-amino-8-fluoro-N-[(6-oxazol-5-yl-2-pyridyl)methyl]quinazoline-4-carboxamide]
9.10	59	–	Nc1nc(C(=O)NCc2cccc(-c3ccccn3)n2)c2cccc(F)c2n1 [Example 63, 2-amino-8-fluoro-N-[[6-(2-pyridyl)-2-pyridyl]methyl]quinazoline-4-carboxamide]
